Assay results reported in US12576050B2, “Dosage regime” (priority 2018, dated 2026).

Experiments:
[1] = test system: people with CF experiencing an acute exacerbation; assay: CARE-CF-1 trial: PROM CFQ-R score; assay type: in vivo; conditions: 450 doses, day 14; greatest for 450 BID
[2] = test system: people with CF experiencing an acute exacerbation; conditions: adjunct to treatment of exacerbations, 14 days
[3] = test system: people with CF experiencing an acute exacerbation; assay: CARE-CF-1 trial: PROM CFRSD-CRISS score; assay type: in vivo; conditions: for CFRSD-CRISS score, Day 7 LSMD (cysteamine − placebo) / CFRSD-CRISS score, Day 14 LSMD (cysteamine − placebo): MMRM, ITT
CF patient = assay: Single patient treated with cysteamine 450 mg bi-daily plus antibiotics; assay type: in vivo; conditions: cysteamine 450 mg BID with Tobramycin and Colomycin, one patient
Description: Patient trialled with combination treatment of 450 mg bi-daily in combination with antibiotics. […] As a result, the patient was taken off regimen of ceftolozane+tazobactam, Colomycin and Pulmozyme and put onto 14-day course of cysteamine 450 mg BID (bi-daily) with Tobramycin and Colomycin. Patient was discharged from hospital 3-days later.

[4] = test system: P. aeruginosa isolated from sputum from a CF patient; assay: Alginate production by sputum isolates (Alcian Blue assay); assay type: cell-based
Description: Isolate A produced 19.93 μg/ml (+/−1.9 SD) alginate and had mucoid phenotype. Isolate B produced 4.47 μg/ml (+/−2.39 SD) with dry colonies.
Results provided in FIG. 5 were derived from a study that conforms to the general quantitative assay described in J. Phycol. 13, 345-348 (1977) “Alcian Blue: A Quantitative Aqueous Assay for Algal Acid and Sulfated Polysaccharides”; J Ramus.

[5] = test system: P. aeruginosa isolate from CF sputum; assay: Kirby Bauer antibiotic disc sensitivity on agar containing cysteamine; assay type: cell-based
Excerpt: Legend: […], I, R=sensitive, intermediate or resistant by interpretive criteria for antibiotic disc sensitivity testing method against P. aeruginosa. No criteria for sulphonamides against P. aeruginosa, however Bactrim/co-trimoxazole sometimes used in CF therefore included here with interpretive criteria for Stenotrophomonas. *=p<0.05 two-way ANOVA Sidak's multiple comparison test.
As a result, the patient was taken off regimen of ceftolozane+tazobactam, Colomycin and Pulmozyme and put onto 14-day course of cysteamine 450 mg BID (bi-daily) with Tobramycin and Colomycin. Patient was discharged from hospital 3-days later.

[6] = test system: Gram −ve organisms in sputum; assay: CARE-CF-1 trial: sputum bacterial load; assay type: in vivo, people with CF; conditions: for Sputum Gram −ve organisms, Day 21 change from baseline, mean: 14 day course; for Sputum Gram −ve organisms, Day 14 LSMD (cysteamine − placebo): MMRM, ITT; for Sputum Gram −ve organisms, D 14 mean: with standard of care
blood leukocytes = assay: CARE-CF-1 trial: blood leukocyte count (WCC); assay type: in vivo, people with CF

## NCCS [Cysteamine, cysteamine]
[1]
  CFQR PROM score: non-significant improvements
[2]
  Safety and tolerability: safe and reasonably well tolerated
[3]; 150 mg TID
  CFRSD-CRISS score, Day 7 change from baseline, mean: −11.9
[3]; 150 mg TID, p 0.1991
  CFRSD-CRISS score, Day 7 LSMD (cysteamine − placebo): 4.25
[3]; 150 mg TID, p 0.9098
  CFRSD-CRISS score, Day 14 LSMD (cysteamine − placebo): 0.57
[3]; 150 mg tid
  CFRSD-CRISS score, D 14 mean: 32.4
  CFRSD-CRISS score, Day 14 change from baseline, mean: −15.5
[3]; 150 mg tid, p 0.87
  CFRSD-CRISS score, D 14 Δ −placebo mean: 0.8
[3]; 300 mg TID
  CFRSD-CRISS score, Day 7 change from baseline, mean: −10.5
[3]; 300 mg TID, p 0.0474
  CFRSD-CRISS score, Day 7 LSMD (cysteamine − placebo): 6.48
[3]; 300 mg TID, p 0.6439
  CFRSD-CRISS score, Day 14 LSMD (cysteamine − placebo): 2.32
[3]; 300 mg tid
  CFRSD-CRISS score, D 14 mean: 34.2
  CFRSD-CRISS score, Day 14 change from baseline, mean: −14.8
[3]; 300 mg tid, p 0.70
  CFRSD-CRISS score, D 14 Δ −placebo mean: 1.9
[3]; 450 mg BID
  CFRSD-CRISS score, Day 7 change from baseline, mean: −19.1
[3]; 450 mg BID, p 0.0496
  CFRSD-CRISS score, Day 14 LSMD (cysteamine − placebo): −9.85
[3]; 450 mg BID, p 0.8081
  CFRSD-CRISS score, Day 7 LSMD (cysteamine − placebo): −0.78
[3]; 450 mg QD
  CFRSD-CRISS score, Day 7 change from baseline, mean: −18.1
[3]; 450 mg QD, p 0.1814
  CFRSD-CRISS score, Day 14 LSMD (cysteamine − placebo): −7.36
[3]; 450 mg QD, p 0.7569
  CFRSD-CRISS score, Day 7 LSMD (cysteamine − placebo): −1.10
[3]; 450 mg TDD: 450 mg QD − 150 mg TID, p 0.1725
  CFRSD-CRISS score, Day 14 LSMD (cysteamine QD/BID − TID): −7.94
[3]; 450 mg TID
  CFRSD-CRISS score, Day 7 change from baseline, mean: −17.8
[3]; 450 mg TID, p 0.2097
  CFRSD-CRISS score, Day 14 LSMD (cysteamine − placebo): −6.27
[3]; 450 mg TID, p 0.7324
  CFRSD-CRISS score, Day 7 LSMD (cysteamine − placebo): 1.11
[3]; 450 mg bi-daily compared with the other doses (FIG. 6)
  Improvements in CFRSD-CRISS domains: best improvements
[3]; 450 mg bid
  CFRSD-CRISS score, D 14 mean: 25.4
  CFRSD-CRISS score, Day 14 change from baseline, mean: −28.1
[3]; 450 mg bid, p 0.035
  CFRSD-CRISS score, D 14 Δ −placebo mean: −10.6
[3]; 450 mg qd
  CFRSD-CRISS score, D 14 mean: 26.1
  CFRSD-CRISS score, Day 14 change from baseline, mean: −24.3
[3]; 450 mg qd, p 0.090
  CFRSD-CRISS score, D 14 Δ −placebo mean: −9.0
[3]; 450 mg tid
  CFRSD-CRISS score, D 14 mean: 31.6
  CFRSD-CRISS score, Day 14 change from baseline, mean: −23.9
[3]; 450 mg tid, p 0.34
  CFRSD-CRISS score, D 14 Δ −placebo mean: −4.8
[3]; 900 mg TDD: 450 mg BID − 300 mg TID, p 0.0222
  CFRSD-CRISS score, Day 14 LSMD (cysteamine QD/BID − TID): −12.17
[3]; 450 BID dose
  CRISS score at day 14 compared with standard of care plus placebo: significant improvement over and above placebo
[3]; 450 BID versus 900 mg as 3 times 300 mg (FIG. 9)
  Potentiation of other antibiotics (CRISS, post-hoc): potentiates other antibiotics more than the 300 mg three times a day dosage regime
[3]; 450 dose regimen, including 450 BID, post-hoc
  CRISS versus placebo group across all concomitant antibiotics examined: non-significant improvements
[3]; across all cysteamine treatment regimens, post-hoc
  CRISS versus placebo, patients not receiving azithromycin: significantly better than placebo
[3]; other 450 doses (qd, tid)
  CRISS score at day 14 compared with placebo: non-significant reductions
CF patient
  Time to discharge from hospital: 3 days
[4]; exposure to cysteamine
  Production of alginate/extracellular polysaccharide in mucoid strains: inhibited
[4]; isolate B, day 14 of 450 mg BID cysteamine, 120 h growth in MHB at 37° C., day 0 isolate A 19.93 μg/ml, mucoid
  Alginate production: 4.47 µg/mL
[4]; isolate B, day 14 of 450 mg BID cysteamine, day 0 isolate mucoid
  Colony phenotype of isolate: dry colonies
[5]; Müller Hinton agar containing cysteamine compared with agar alone
  Zone of clearance and sensitivity to sulphonamides: significant increase
[5]; in vitro, patient isolate (FIG. 8)
  Sensitivity to various antibiotics in combination with cysteamine: increased sensitivity
[6]; 150 mg TID
  Sputum Gram −ve organisms, Day 21 change from baseline, mean: −0.26 log10 CFU/ml
[6]; 150 mg TID, p 0.9753
  Sputum Gram −ve organisms, Day 14 LSMD (cysteamine − placebo): 0.03 log10 CFU/ml
[6]; 150 mg TID, p 0.9511
  Sputum Gram −ve organisms, Day 21 LSMD (cysteamine − placebo): 0.05 log10 CFU/ml
[6]; 150 mg tid
  Sputum Gram −ve organisms, Day 14 change from baseline, mean: −1.24 log10 CFU/ml
[6]; 150 mg tid for 14 days
  Sputum Gram −ve organisms, D 14 mean: 5.08 log10 CFU/ml
[6]; 150 mg tid, p 0.97
  Sputum Gram −ve organisms, D 14 Δ −placebo mean: 0.03 log10 CFU/ml
[6]; 300 mg TID
  Sputum Gram −ve organisms, Day 21 change from baseline, mean: −0.87 log10 CFU/ml
[6]; 300 mg TID, p 0.3683
  Sputum Gram −ve organisms, Day 14 LSMD (cysteamine − placebo): 0.82 log10 CFU/ml
[6]; 300 mg TID, p 0.7802
  Sputum Gram −ve organisms, Day 21 LSMD (cysteamine − placebo): −0.24 log10 CFU/ml
[6]; 300 mg tid
  Sputum Gram −ve organisms, Day 14 change from baseline, mean: −0.98 log10 CFU/ml
[6]; 300 mg tid for 14 days
  Sputum Gram −ve organisms, D 14 mean: 6.14 log10 CFU/ml
[6]; 300 mg tid, p 0.36
  Sputum Gram −ve organisms, D 14 Δ −placebo mean: 0.87 log10 CFU/ml
[6]; 450 mg BID
  Sputum Gram −ve organisms, Day 21 change from baseline, mean: −1.04 log10 CFU/ml
[6]; 450 mg BID, p 0.4165
  Sputum Gram −ve organisms, Day 14 LSMD (cysteamine − placebo): 0.72 log10 CFU/ml
[6]; 450 mg BID, p 0.6117
  Sputum Gram −ve organisms, Day 21 LSMD (cysteamine − placebo): −0.41 log10 CFU/ml
[6]; 450 mg QD
  Sputum Gram −ve organisms, Day 21 change from baseline, mean: −1.22 log10 CFU/ml
[6]; 450 mg QD, p 0.4445
  Sputum Gram −ve organisms, Day 14 LSMD (cysteamine − placebo): 0.72 log10 CFU/ml
[6]; 450 mg QD, p 0.0799
  Sputum Gram −ve organisms, Day 21 LSMD (cysteamine − placebo): −1.56 log10 CFU/ml
[6]; 450 mg TDD: 450 mg QD − 150 mg TID
  Sputum Gram −ve organisms, Day 14 LSMD (cysteamine QD/BID − TID): 0.69 log10 CFU/ml
[6]; 450 mg TID
  Sputum Gram −ve organisms, Day 21 change from baseline, mean: 0.93 log10 CFU/ml
[6]; 450 mg TID, p 0.0602
  Sputum Gram −ve organisms, Day 14 LSMD (cysteamine − placebo): 1.57 log10 CFU/ml
[6]; 450 mg TID, p 0.2130
  Sputum Gram −ve organisms, Day 21 LSMD (cysteamine − placebo): 0.99 log10 CFU/ml
[6]; 450 mg bid
  Sputum Gram −ve organisms, Day 14 change from baseline, mean: −1.32 log10 CFU/ml
[6]; 450 mg bid for 14 days
  Sputum Gram −ve organisms, D 14 mean: 6.25 log10 CFU/ml
[6]; 450 mg bid, p 0.61
  Sputum Gram −ve organisms, D 14 Δ −placebo mean: 0.46 log10 CFU/ml
[6]; 450 mg qd
  Sputum Gram −ve organisms, Day 14 change from baseline, mean: 0.12 log10 CFU/ml
[6]; 450 mg qd for 14 days
  Sputum Gram −ve organisms, D 14 mean: 4.49 log10 CFU/ml
[6]; 450 mg qd, p 0.36
  Sputum Gram −ve organisms, D 14 Δ −placebo mean: 0.90 log10 CFU/ml
[6]; 450 mg tid
  Sputum Gram −ve organisms, Day 14 change from baseline, mean: 0.33 log10 CFU/ml
[6]; 450 mg tid for 14 days
  Sputum Gram −ve organisms, D 14 mean: 6.27 log10 CFU/ml
[6]; 450 mg tid, p 0.059
  Sputum Gram −ve organisms, D 14 Δ −placebo mean: 1.66 log10 CFU/ml
[6]; 900 mg TDD: 450 mg BID − 300 mg TID
  Sputum Gram −ve organisms, Day 14 LSMD (cysteamine QD/BID − TID): −0.11 log10 CFU/ml
Blood leukocytes; 150 mg tid
  Blood Leukocyte Count, D 14 mean: 9.71e+09 L⁻¹
  Blood Leukocyte Count, D 14 Δbaseline mean: -2.64e+09 L⁻¹
Blood leukocytes; 150 mg tid, p 1.00
  Blood Leukocyte Count, D 14 Δ −placebo mean: 0 L⁻¹
Blood leukocytes; 300 mg tid
  Blood Leukocyte Count, D 14 mean: 1.055e+10 L⁻¹
  Blood Leukocyte Count, D 14 Δbaseline mean: -1.9e+08 L⁻¹
Blood leukocytes; 300 mg tid, p 0.84
  Blood Leukocyte Count, D 14 Δ −placebo mean: -2.4e+08 L⁻¹
Blood leukocytes; 450 mg bid
  Blood Leukocyte Count, D 14 mean: 7.45e+09 L⁻¹
  Blood Leukocyte Count, D 14 Δbaseline mean: -3.41e+09 L⁻¹
Blood leukocytes; 450 mg bid, p 0.033
  Blood Leukocyte Count, D 14 Δ −placebo mean: -2.43e+09 L⁻¹
Blood leukocytes; 450 mg qd
  Blood Leukocyte Count, D 14 mean: 8.52e+09 L⁻¹
  Blood Leukocyte Count, D 14 Δbaseline mean: -2.22e+09 L⁻¹
Blood leukocytes; 450 mg qd, p 0.22
  Blood Leukocyte Count, D 14 Δ −placebo mean: -1.49e+09 L⁻¹
Blood leukocytes; 450 mg tid
  Blood Leukocyte Count, D 14 mean: 9.79e+09 L⁻¹
  Blood Leukocyte Count, D 14 Δbaseline mean: -4.06e+09 L⁻¹
Blood leukocytes; 450 mg tid, p 0.33
  Blood Leukocyte Count, D 14 Δ −placebo mean: -1.11e+09 L⁻¹
